Results taken from US20220304349A1, “Steviol Glycoside Compositions for Oral Ingestion or Use” (CARGILL, Incorporated, priority 2016, published 2022).

Key:
[1] = cited from earlier work
[2] = Instantaneous solubility: vigorous mixing with deionized water for 10 minutes at room temperature; type: physicochemical; parameters: key to instantaneous solubility at stated concentration: Clear solutions without precipitates are considered soluble; details: for concentration of the rebaudioside in the instantaneously soluble 0.37% solution of the fermentation composition: room temperature water; for instantaneous solubility: water, room temperature
Method: The composition can optionally be expressed in terms of the concentration of one or more steviol glycoside(s). […] Clear solutions without precipitates are considered soluble. Unless indicated otherwise herein, the term “solubility” refers to “equilibrium solubility.”
Instantaneous solubility is determined by mixing steviol glycoisde with deionized water vigorously for 10 minutes at room temperature. […] Clear solutions without precipitates are considered soluble.

[3] = in vivo; cited from earlier work
[4] = Equilibrium solubility: heating in deionized water at 80° C. for 15 minutes, cooling to room temperature, observation up to 4 days; type: physicochemical; parameters: key to equilibrium solubility at stated concentration: Clear solutions without precipitates are considered soluble; details: for equilibrium solubility: after 80° C. for 15 minutes, at room temperature, up to 4 days
Excerpt: The composition can optionally be expressed in terms of the concentration of one or more steviol glycoside(s). […] Clear solutions without precipitates are considered soluble. Unless indicated otherwise herein, the term “solubility” refers to “equilibrium solubility.” […]

[5] = Sweetness time intensity (TI) profile in water, SG composition Lot B versus RebM; type: in vivo, human; details: sweetness TI in water vs RebM
Method: Comparison of SG composition Lot B and RebM using TI for sweet.
Training: Descriptive panelists, who are highly trained and experienced on-call taste panelists, had four training sessions. They trained with sucrose references. Then they practiced scoring the samples using the scale on the ballot using a time intensity scale.
Testing: There was at least a 10 minute break in between samples. They were provided with filtered water, sparkling water, carrots, unsalted rice crackers and unsalted saltine crackers during break only. All samples were evaluated in a balanced sequential order one at a time. Panelists swallowed the sample at 10 seconds.
Serving Size/Container: 15 g in a 2 oz cup Serving Temp Room temperature
Sweetness Results (12 panelists; 3 replicates)

[6] = Sensory evaluation by two to three experienced tasters, solutions in reverse osmosis water (Example 5, Tests A and B); type: in vivo, human
Method: (§1) Glycoside samples (SG101-104) were isolated and purified from fermentation broth, purified Rebs A, B, and D are of leaf origin and Reb M is chemically synthesized. All samples were dissolved in reverse osmosis water at the concentrations indicated. Unsweetened black tea was used in one set of experiments. Approximately 2-3 milliliters of each solution was tasted and sensory evaluations conducted by two to three experienced tasters. Test A
As used herein, “sucrosey” means having a flavor profile, a sweetness profile, or a flavor profile and a sweetness pofile more similar to that of sucrose.

[7] = Sensory evaluation by experienced tasters in unsweetened black tea (Example 5, Test A); type: in vivo, human; details: about 200 ppm in tea
Method: as §1

[8] = SEV measurement by trained sensory panel in citric acid buffer at pH=3.0; type: in vivo, human; details: for SEV: citric acid buffer pH=3.0; for Sucrose equivalent value / relative sweetness scale- sucrose = 1: 250 ppm in citric buffer, pH = 3.0
Excerpt: Sweetness may be determined by measuring sucrose equivalent values (SEV) using methods and processes well known to those skilled in the art. For example, SEV may be determined by measuring sweetness equivalence to a reference sucrose solution. Typically, taste panelists are trained to detect and scale sweetness of reference sucrose solutions containing between 10 g to 150 g sucrose/kg (1 to 15 wt % aqueous sucrose solution). A sweetener composition containing one or more glycosides are then tasted at a series of dilutions to determine the concentration of the sweetener composition that is as sweet as a given sucrose reference. For example, if a sweetened solution is as sweet as a 5 wt % sucrose solution, then the sweetened solution is assigned a SEV of 5.
SEV measurements for SG101-104 (listed above and in Table 12) were performed according to the following procedure: A trained sensory panel evaluated solutions of SG101, SG102, SG103, and SG104 at the concentrations specified. Solutions were made in a citric acid buffer at pH=3.0. All solutions were heated to 55° C. for 12 minutes to ensure that all the glycoside material was completely dissolved. The solutions were allowed to cool to room temperature before serving to the panelists. Each solution was given a random 3-digit code and was served to the panelists in random order. Panelists dispensed 2 mL of each solution into their mouths from a pipette. The panelists were then asked to rate the “sweetness intensity” of the solutions and mark their responses on an un-anchored, 15 cm line scale. The length of the line corresponds to the scale values (1-15) on which the participants were trained. The panelists' responses were measured, compiled, and averaged for each sample. Each sample was tested by approximately 12 trained panelists.

**Q.** With `C=C1C[C@@]23CC[C@H]4[C@@](C)(CCC[C@@]4(C)C(=O)O[C@@H]4O[C@H](CO)[C@@H](O)[C@H](O[C@@H]5O[C@H](CO)[C@@H](O)[C@H](O)[C@H]5O)[C@H]4O[C@@H]4O[C@H](CO)[C@@H](O)[C@H](O)[C@H]4O)[C@@H]2CC[C@]1(O[C@@H]1O[C@H](CO)[C@@H](O)[C@H](O[C@@H]2O[C@H](CO)[C@@H](O)[C@H](O)[C@H]2O)[C@H]1O[C@@H]1O[C@H](CO)[C@@H](O)[C@H](O)[C@H]1O)C3` [Reb M, rebaudioside M] as the molecule, how does the “aqueous solubility in words” value [1] read?
**A.** poor aqueous solubility and dissolution qualities in beverage formulations

**Q.** What about the “instantaneous solubility at stated concentration” value ([2]; 0.10%) of the same molecule?
**A.** soluble

**Q.** What about the “instantaneous solubility at stated concentration” value ([2]; 0.13%) of the same molecule?
**A.** soluble

**Q.** And the “instantaneous solubility at stated concentration” value ([2]; 0.20%)?
**A.** insoluble

**Q.** What about the “instantaneous solubility at stated concentration” value ([2]; 0.30%) of the same molecule?
**A.** insoluble

**Q.** What about the “improvement (increase) in instantaneous solubility over the pure rebaudioside” value ([2]; in the presence of compounds SG101-104 (fermentation derived composition)) of the same molecule?
**A.** > 60%

**Q.** And the “concentration of the rebaudioside in the instantaneously soluble 0.37% solution of the fermentation composition” value [2]?
**A.** 0.21%

**Q.** And the “concentration of the rebaudioside in the instantaneously soluble 0.37% solution of the fermentation composition” value ([2]; listed as reb M)?
**A.** about 0.21%

**Q.** And the instantaneous solubility [2]?
**A.** at least 0.13%

**Q.** And the instantaneous solubility ([2]; listed as rebaudioside M)?
**A.** about 0.13%

**Q.** And the sweetness characteristics [3]?
**A.** higher sweetness intensity and is more potent than other steviol glycosides

**Q.** And the “equilibrium solubility at stated concentration” value ([4]; 0.10%)?
**A.** soluble

**Q.** What about the “equilibrium solubility at stated concentration” value ([4]; 0.13%) of the same molecule?
**A.** soluble

**Q.** And the “equilibrium solubility at stated concentration” value ([4]; 0.20%)?
**A.** soluble

**Q.** And the “equilibrium solubility at stated concentration” value ([4]; 0.30%)?
**A.** insoluble

**Q.** What about the equilibrium solubility [4] of the same molecule?
**A.** at least 0.2%

**Q.** What about the equilibrium solubility ([4]; listed as rebaudioside M) of the same molecule?
**A.** about 0.2%

**Q.** And the Perimeter [5]?
**A.** 58.3

**Q.** And the AUC ([5]; area under the curve (total))?
**A.** 132.9a

**Q.** And the “Plateau Time” value ([5]; duration of peak intensity)?
**A.** 4.1a

**Q.** And the Tdur ([5]; duration time of sensation)?
**A.** 35.4a

**Q.** And the Imax ([5]; peak intensity, 12 panelists, 3 replicates)?
**A.** 5.9

**Q.** What about the APostMax ([5]; post-peak area under the curve) of the same molecule?
**A.** 90.0a

**Q.** What about the APreMax ([5]; pre-peak area under the curve) of the same molecule?
**A.** 43.0

**Q.** What about the “Rate Decrease” value ([5]; slope after peak intensity) of the same molecule?
**A.** −0.2a

**Q.** And the “Rate Increase” value ([5]; slope before peak intensity)?
**A.** 0.7

**Q.** What about the Tonset ([5]; time sensation is first perceived) of the same molecule?
**A.** 0.8

**Q.** And the Text ([5]; time to extinction)?
**A.** 36.3a

**Q.** And the Sensory comments ([6]; 200 ppm in water, Test A)?
**A.** Typical mid-sweet for Reb M, fairly well rounded, quick rise, some tailing, some bitter

**Q.** What about the Sensory comments ([6]; 400 ppm in water, Test A) of the same molecule?
**A.** Higher sweet, faster onset than 200 ppm, cotton candy sweetness-skews to HFCS longer linger, sharper bitterness—but not oppressing sweetness

**Q.** And the Sensory comments ([6]; Reb M alone in water, Test B, concentration not stated at the comment)?
**A.** clean, sweet, spiky sweetness

**Q.** And the Sensory comments [7]?
**A.** Nice subtle sweetness, feels like sugar, but with long linger very good

**Q.** With `C=C1C[C@@]23CCC4[C@](C)(C(=O)OC5OC(CO)C(O)C(O)C5OC5OC(CO)C(O)C(O)C5O)CCC[C@@]4(C)[C@@H]2CC[C@]1(OC1OC(COC2OC(CO)C(O)C(O)C2O)C(O)C(OC2OC(CO)C(O)C(O)C2O)C1OC1OC(CO)C(O)C(O)C1O)C3` (stereo partly shown) [SG101] as the molecule, how does the SEV ([8]; 200 ppm) read?
**A.** 0.6

**Q.** And the SEV ([8]; 400 ppm)?
**A.** 1.2

**Q.** And the SEV ([8]; 500 ppm)?
**A.** 1.6

**Q.** And the Sensory comments ([6]; 200 ppm in water, Test A)?
**A.** not sweet, astringent, cloying—mouth drying on the tongue

**Q.** What about the Sensory comments [7] of the same molecule?
**A.** Zero sweetness, seems less than in water, naked tea

**Q.** Which SEV ([8]; 200 ppm) does the source give for `C=C1C[C@@]23CCC4[C@](C)(C(=O)OC5OC(CO)C(O)C(OC6OC(CO)C(O)C(O)C6O)C5OC5OC(CO)C(O)C(O)C5O)CCC[C@@]4(C)[C@@H]2CC[C@]1(OC1OC(COC2OC(CO)C(O)C(O)C2O)C(O)C(OC2OC(CO)C(O)C(O)C2O)C1OC1OC(CO)C(O)C(O)C1O)C3` (stereo partly shown) [SG102] here?
**A.** 1.0

**Q.** And the SEV ([8]; 400 ppm)?
**A.** 1.5

**Q.** What about the Sensory comments ([6]; 200 ppm in water, Test A) of the same molecule?
**A.** a bit sweeter than SG101, sweetness does have quick onset

**Q.** And the Sensory comments [7]?
**A.** Not sweet, slightly less astringent, some additional roundedness

**Q.** Which Sucrose equivalent value [8] does the source give for `C=C1C[C@@]23CCC4[C@](C)(C(=O)OC5OC(CO)C(O)C(O)C5OC5OC(CO)C(O)C(O)C5O)CCC[C@@]4(C)[C@@H]2CC[C@]1(OC1OC(CO)C(O)C(OC2OC(COC4OC(CO)C(O)C(O)C4O)C(O)C(O)C2O)C1OC1OC(CO)C(O)C(O)C1O)C3` (stereo partly shown) [SG103] here?
**A.** 4.8

**Q.** What about the “relative sweetness scale- sucrose = 1” value [8] of the same molecule?
**A.** 192X

**Q.** And the Sensory comments ([6]; 200 ppm in water, Test A)?
**A.** as sweet or sweeter than 200 ppm Reb M, more sucrosey, sugary quality characteristics (high fructose corn syrup (HFCS), cotton candy notes) are reminiscent of Reb M at 400 ppm but not as sweet, “fuller” feeling

**Q.** What about the Sensory comments [7] of the same molecule?
**A.** Slower onset than Reb M by itself, not as sweet as Reb M, slightly more licorice aftertaste

**Q.** For `C=C1C[C@@]23CCC4[C@](C)(C(=O)OC5OC(CO)C(O)C(OC6OC(CO)C(O)C(O)C6O)C5OC5OC(CO)C(O)C(O)C5O)CCC[C@@]4(C)[C@@H]2CC[C@]1(OC1OC(CO)C(O)C(OC2OC(COC4OC(CO)C(O)C(O)C4O)C(O)C(O)C2O)C1OC1OC(CO)C(O)C(O)C1O)C3` (stereo partly shown) [SG104], which Sucrose equivalent value [8] is on record?
**A.** 6.5

**Q.** What about the “relative sweetness scale- sucrose = 1” value [8] of the same molecule?
**A.** 260X

**Q.** What about the Sensory comments ([6]; 200 ppm in water, Test A) of the same molecule?
**A.** as sweet or sweeter than 200 ppm Reb M, more rounded sweetness, enhanced sugar quality effects (sensations reminiscent of sucrose, vanilla), “fuller” feeling

**Q.** And the Sensory comments [7]?
**A.** As sweet as Reb M, very sucrosey compared to Reb M, a little back end licorice
